Reference: patent publication US20260021158A1, “GRANULAR COMPOSITIONS COMPRISING A PEPTIDE AND USES THEREOF” (TARSIER PHARMA LTD., priority 2022, published 2026)

Assay: Assay of physical mixtures and extrudates for API stability by HPLC-UV
Format: physicochemical
Settings: after the grinding and sieving process as well as extrusion; physical mixture and extrudate
Description: Physical mixtures were assayed for drug load and stability post grinding and sieving. 5 mg of sample was weighed into an aluminum weighing boat and transferred to a low-binding Eppendorf, followed by the addition of 50 uL of ACN. This was vortexed vigorously until the polymer had dissolved and the API precipitated. Next, water was added and the mixture vortexed vigorously again until the API dissolved completely, and polymer had precipitated. For the 18% drug loaded physical mixtures, 2950 μL water was added and for the 9% drug loaded physical mixtures, 1450 μL water was added. Lastly, the Eppendorfs were centrifuged for 30 seconds at a speed of 5′000 RPM.
Extrudates were assayed for drug load and stability by cutting them to specific weights to give the same end concentration as the standards (net peptide concentration of 0.3 mg/mL) after the addition of diluent. […] Lastly, the Eppendorfs were centrifuged and supernatants analyzed.
Drug load and stability of API in the extrudates were quantified by HPLC-UV as describe above. […] Additionally, the homogeneity of the entire length of the extrudate was assessed by cutting and weighing three 3 mm pieces from each section from 1 to 16 (N=16, n=3) and assaying in the same way as outlined above (Assay of physical mixtures by HPLC-UV). Lastly, the average diameter of the extrudates was measured by caliper.

Structure (SMILES): C[C@@H](O)[C@H](NN)C(=O)N[C@@H](CCCCN)C(=O)N1CCC[C@H]1C(=O)N[C@@H](CCCNC(=N)N)C(=O)C(=O)CNNC(Cc1ccc(O)c(/N=N/c2ccc(OP(=O)([O-])OCC[N+](C)(C)C)cc2)c1)C(=O)O (stereo partly shown) [PTC, Dazdotuftide]
- stability of API after processing: stable
